{"source": "paper PMC7589021", "about": "“Setup and Validation of a Reliable Docking Protocol for the Development of Neuroprotective Agents by Targeting the Sigma-1 Receptor (S1R)” (International Journal of Molecular Sciences, 2020)", "key": {"S1R [1]": {"target": "T1, S1R (Cavia porcellus, UniProt Q60492)", "T1 sequence (Q60492 whole entry)": "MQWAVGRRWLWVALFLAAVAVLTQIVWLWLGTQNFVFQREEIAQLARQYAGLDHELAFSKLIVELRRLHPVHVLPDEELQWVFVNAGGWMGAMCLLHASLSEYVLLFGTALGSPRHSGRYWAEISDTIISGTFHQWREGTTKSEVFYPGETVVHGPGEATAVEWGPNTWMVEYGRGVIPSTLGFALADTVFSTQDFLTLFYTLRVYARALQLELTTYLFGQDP", "assay": "S1R radioligand binding assay ([3H](+)-pentazocine, guinea pig brain cortex membranes)", "parameters": "The thawed membrane preparation of guinea pig brain cortex; from tissue; host or cells: guinea pig brain (cerebral) cortex membranes"}, "S1R [2]": {"target": "T1, S1R", "assay": "S1R binding affinity of previously published compounds", "settings": "ln of experimental Ki S1R (nM), Table 1", "excerpt": "Table 1 Glide Gscores, calculated Ligand Efficiencies and experimentally determined Ki values of compounds 1–8 employed for the elaboration of the docking model. | column: ln(Ki)"}, "S2R [3]": {"target": "S2R", "parameters": "method as in PMID 30223122", "settings": "read-out: KiS2R; cited from earlier work"}, "HeLa cells": {"tested_on": "HeLa cells", "assay": "Osmotic water permeability (AQP-mediated), stopped-flow light scattering", "format": "cell-based", "protocol": "Prompted by these encouraging results, we decided to draw the antioxidant profile of compound 12, since it is well-known that oxidative stress is connected with insurgence and exacerbation of neurodegenerative diseases. In particular, the AQP-mediated antioxidant properties of RC-33 (i.e., 1-[3-(1,1′-biphen)-4-yl]butylpiperidine, our in-house developed selective S1R agonist) and 12 were evaluated in HeLa cells, following the procedures reported in our most recent studies. Briefly, osmotic water permeability was measured by a stopped-flow light scattering method and expressed as percentage of k relative. Compounds RC-33 and 12 were tested at 20 µM whereas curcumin was used as control of the goodness of the cellular assay, since its capability to affect the AQPs permeability was assessed in our previous work. The compounds were initially assessed on non-stressed HeLa cells to evaluate the capability of the compounds to affect the AQPs permeability in absence of an oxidant stimuli. […] Conversely, curcumin directly affect AQPs resulting in a significative permeability reduction (75% of k relative). RC-33, 12 and curcumin were further assessed under oxidative stress conditions induced by heating the cell cultures. […] Thus, to probe the entanglement between S1R, AQP permeability and antioxidant protection, compound 12 was assessed against stressed HeLa cells in presence of NE-100, a well-known and fully characterized S1R antagonist.\nOsmotic water permeability was measured in HeLa cells suspension by the stopped-flow light scattering method as previously described.\nThe antioxidant effect of compound 12 on water permeability HeLa cells were divided into different groups: (1) Controls, cells incubated at room temperature (21 °C); (2) heat-stressed cells, cells subjected to heat-treatment by incubating them in a water thermostatic and shacking bath at 42 °C for 3 h; (3) heat-stressed cells pre-treated, cells heat-stressed in the presence of the compound 12 at 20 µM final concentration (dissolved in methanol). Moreover, to test the possible capacity of the molecules to affect the AQP gating in normal condition, HeLa cells were treated in the presence and in the absence of the compounds by incubating at 21 °C for 3 h."}, "S1R [4]": {"target": "T1, S1R", "parameters": "method as in PMID 30223122", "settings": "read-out: KiS1R; cited from earlier work"}, "[5]": {"target": "T2, GluN2 subunit of NMDA (GluN1a and GluN2B subunits) (Homo sapiens, UniProt Q05586+Q13224)", "T2 construct": "expressed in transfected cells; host or cells: L(tk-) cells, stably transfected", "T2 sequence (Q13224 27-1484, other chains not shown)": "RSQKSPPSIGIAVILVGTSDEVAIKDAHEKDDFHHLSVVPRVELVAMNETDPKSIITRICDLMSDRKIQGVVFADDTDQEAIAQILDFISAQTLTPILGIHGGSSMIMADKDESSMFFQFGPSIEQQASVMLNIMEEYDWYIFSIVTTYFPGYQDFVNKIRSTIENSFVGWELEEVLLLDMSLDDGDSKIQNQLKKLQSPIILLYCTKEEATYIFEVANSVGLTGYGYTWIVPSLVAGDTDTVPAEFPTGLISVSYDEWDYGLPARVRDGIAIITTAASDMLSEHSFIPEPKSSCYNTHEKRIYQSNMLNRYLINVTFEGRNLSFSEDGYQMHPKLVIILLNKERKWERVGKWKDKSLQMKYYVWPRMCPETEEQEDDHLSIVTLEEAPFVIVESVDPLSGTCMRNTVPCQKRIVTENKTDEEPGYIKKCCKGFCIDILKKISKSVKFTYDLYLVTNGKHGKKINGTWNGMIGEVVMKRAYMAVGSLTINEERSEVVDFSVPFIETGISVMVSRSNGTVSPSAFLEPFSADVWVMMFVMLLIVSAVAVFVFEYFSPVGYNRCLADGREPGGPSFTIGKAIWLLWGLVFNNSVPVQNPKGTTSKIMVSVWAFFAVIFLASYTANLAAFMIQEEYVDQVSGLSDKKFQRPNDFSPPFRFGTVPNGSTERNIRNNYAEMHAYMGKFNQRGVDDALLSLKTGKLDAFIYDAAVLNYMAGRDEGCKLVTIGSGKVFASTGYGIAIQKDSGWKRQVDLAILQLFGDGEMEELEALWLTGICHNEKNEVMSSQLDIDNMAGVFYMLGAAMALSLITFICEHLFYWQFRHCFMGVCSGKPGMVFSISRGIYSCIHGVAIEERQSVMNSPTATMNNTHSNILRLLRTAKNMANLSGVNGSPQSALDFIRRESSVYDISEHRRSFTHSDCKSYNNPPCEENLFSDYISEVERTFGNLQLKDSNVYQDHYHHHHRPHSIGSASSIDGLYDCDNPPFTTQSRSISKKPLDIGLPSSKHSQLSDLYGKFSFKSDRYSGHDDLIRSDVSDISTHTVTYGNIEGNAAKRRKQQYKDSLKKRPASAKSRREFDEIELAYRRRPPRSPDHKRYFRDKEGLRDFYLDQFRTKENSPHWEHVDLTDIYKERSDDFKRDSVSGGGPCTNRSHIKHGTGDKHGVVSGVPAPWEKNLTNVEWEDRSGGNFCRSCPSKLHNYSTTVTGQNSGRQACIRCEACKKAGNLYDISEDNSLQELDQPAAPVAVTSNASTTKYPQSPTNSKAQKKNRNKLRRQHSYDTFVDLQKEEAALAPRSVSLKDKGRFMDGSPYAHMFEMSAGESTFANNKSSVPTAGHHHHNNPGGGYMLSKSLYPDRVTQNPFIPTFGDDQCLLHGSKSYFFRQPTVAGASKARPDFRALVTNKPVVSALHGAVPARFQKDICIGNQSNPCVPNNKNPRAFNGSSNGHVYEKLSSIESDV", "assay": "GluN2 binding assay ([3H]-ifenprodil, membranes of transfected L(tk-) cells)"}, "AChE": {"target": "AChE (Electrophorus electricus, UniProt O42275)", "sequence (O42275 24-633)": "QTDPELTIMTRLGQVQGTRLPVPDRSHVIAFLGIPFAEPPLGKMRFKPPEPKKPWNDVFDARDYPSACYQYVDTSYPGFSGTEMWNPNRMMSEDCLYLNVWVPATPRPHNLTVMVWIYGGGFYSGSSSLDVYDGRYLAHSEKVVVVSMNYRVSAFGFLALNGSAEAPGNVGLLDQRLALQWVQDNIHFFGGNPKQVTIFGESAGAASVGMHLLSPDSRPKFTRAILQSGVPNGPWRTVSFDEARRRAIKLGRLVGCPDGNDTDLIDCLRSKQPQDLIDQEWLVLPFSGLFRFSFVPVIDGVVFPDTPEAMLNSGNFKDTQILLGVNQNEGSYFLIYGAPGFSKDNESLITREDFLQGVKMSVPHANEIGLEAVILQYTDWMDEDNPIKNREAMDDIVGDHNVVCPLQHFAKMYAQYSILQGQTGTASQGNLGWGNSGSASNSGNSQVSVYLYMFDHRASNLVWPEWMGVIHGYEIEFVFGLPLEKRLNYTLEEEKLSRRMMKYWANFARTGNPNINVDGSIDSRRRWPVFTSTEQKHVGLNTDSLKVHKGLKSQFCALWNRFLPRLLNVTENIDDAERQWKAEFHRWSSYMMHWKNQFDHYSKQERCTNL", "assay": "Inhibition of AChE, modified Ellman's method", "format": "biochemical", "protocol": "To test the potential to inhibit AChE, a spectrophotometric procedure was adopted, based on the well-known Ellman’s method. Firstly, the target compound was tested at a concentration of 50 μM and a 72% of inhibition was observed.\nAChE inhibitory activity of compound 12 was determined by the modified Ellman’s method. Briefly, a stock solution of tested compound (5.0 mM) was prepared in DMSO and diluted using 0.1 M KH2PO4/K2HPO4 buffer (pH 8.0) to afford a final concentration range between […]. Enzyme solutions were prepared by dissolving lyophilized powder in double-distilled water. […] The reaction was started by addition of […] of the 0.075 M substrate solution (acetylthiocholine iodide) and exactly 2 min after substrate addition, the absorption was measured at 25 °C at 412 nm. In enzyme-free assay systems the non-enzymatic hydrolysis of acetylthiocholine iodide was measured, and the results were employed as blank. […] Each experiment was performed in triplicate, and the mean ± standard deviation was calculated. Data from concentration-inhibition experiments of the inhibitors were calculated by nonlinear regression analysis, using the Excel program."}, "S2R [6]": {"target": "T3, S2R (Rattus norvegicus, UniProt Q5U3Y7)", "T3 construct": "The assay was performed using 150 µg of rat liver homogenate; from tissue; host or cells: rat liver homogenate / membranes", "T3 sequence (Q5U3Y7 1-176)": "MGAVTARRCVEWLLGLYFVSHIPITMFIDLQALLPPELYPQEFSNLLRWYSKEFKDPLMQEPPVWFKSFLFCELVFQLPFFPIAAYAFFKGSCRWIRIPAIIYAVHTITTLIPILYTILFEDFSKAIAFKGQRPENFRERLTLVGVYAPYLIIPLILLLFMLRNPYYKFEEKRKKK", "assay": "S2R radioligand binding assay ([3H]-DTG, rat liver membranes)", "settings": "(+)-pentazocine to mask S1R"}, "[7]": {"settings": "guinea pig cerebral cortex membranes, [3H]-(+)-pentazocine, read-out: Experimental Ki S1R (nM) ± SEM"}, "[8]": {"settings": "ln of experimental Ki S1R (nM), read-out: Experimental Ki S1R (converted)"}, "[9]": {"settings": "Experimental Ki S1R (nM) ± SEM, guinea pig cerebral cortex membranes, [3H]-(+)-pentazocine"}, "[10]": {"settings": "Experimental ln(Ki), ln of experimental Ki S1R (nM)"}, "[11]": {"settings": "heat-stressed HeLa cells (42 °C 3 h), pre-treated at 20 µM"}, "[12]": {"settings": "non-stressed HeLa cells, 21 °C 3 h, 20 µM"}}, "note": "Structures can show the parent of a compound that is named as a salt. Where two headings read alike, the source gives them in different places.", "data": [{"smiles": "O=C(CN1CCCCC1)c1ccc(-c2ccccc2)cc1", "note": "[Compound 8, 1-(2-([1,1’-biphenyl]-4-yl)-2-oxoethyl)piperidin-1-ium hydrochloride]", "values": [{"measurement": "Ki", "setting": "S1R [1]; [7]", "value": "132 ± 55", "unit": "nM"}, {"measurement": "Ki", "setting": "S1R [1]; [8]", "value": 132, "unit": "nM"}]}, {"smiles": "O=C(CCN1CCCCC1)c1ccc(-c2ccccc2)cc1", "note": "[Compound 2]", "values": [{"measurement": "ln(Ki)", "setting": "S1R [2]", "value": 2.708}]}, {"smiles": "O=C(CN1CCCCC1)c1ccc(OCc2ccccc2)cc1", "note": "[Compound 9, 1-(2-(4-(benzyloxy)phenyl)-2-oxoethyl)piperidin-1-ium hydrochloride]", "values": [{"measurement": "Ki", "setting": "S1R [1]; [9]", "value": "48 ± 12", "unit": "nM"}, {"measurement": "Ki", "setting": "S1R [1]; [10]", "value": 48, "unit": "nM"}]}, {"smiles": "O=C(CCN1CCOCC1)c1ccc2ccccc2c1", "note": "[Compound 5]", "values": [{"measurement": "ln(Ki)", "setting": "S1R [2]", "value": 2.197}]}, {"smiles": "CC(CCN1CCCCC1)c1ccc(-c2ccccc2)cc1", "note": "(stereo not shown) [RC-33, 1-[3-(1,1′-biphen)-4-yl]butylpiperidine]", "values": [{"measurement": "Ki", "setting": "S2R [3]", "value": "0.045 ± 0.016", "unit": "µM"}, {"measurement": "osmotic water permeability, percent of k relative", "setting": "HeLa cells; [11]", "value": "able to prevent the water permeability reduction"}, {"measurement": "osmotic water permeability, percent of k relative", "setting": "HeLa cells; [12]", "value": "comparable"}, {"measurement": "Ki", "setting": "S1R [4]", "value": "0.0018 ± 0.0001", "unit": "µM"}]}, {"smiles": "O=C(CN1CCCCC1)c1ccc(OCc2ccccc2)cc1", "note": "(as salt: hydrochloride) [Compound 9, 1-(2-(4-(benzyloxy)phenyl)-2-oxoethyl)piperidin-1-ium hydrochloride]", "values": [{"measurement": "melting point", "value": "86 to 88", "unit": "°C"}]}, {"smiles": "CCCN(CCC)CCc1ccc(OC)c(OCCc2ccccc2)c1", "note": "[NE-100]", "values": [{"measurement": "osmotic water permeability, percent of k relative", "setting": "HeLa cells; [11]", "value": "78 % of k relative"}]}, {"smiles": "O=C(CN1CCCCC1)c1ccc(-c2ccccc2)cc1", "note": "(as salt: hydrochloride) [Compound 8, 1-(2-([1,1’-biphenyl]-4-yl)-2-oxoethyl)piperidin-1-ium hydrochloride]", "values": [{"measurement": "melting point", "value": "236 to 238", "unit": "°C"}]}, {"smiles": "O=C(CCCN1CCCCC1)c1ccc(OCc2ccccc2)cc1", "note": "(as salt: hydrochloride) [Compound 13, 1-(4-(4-(benzyloxy)phenyl)-4-oxobutyl)piperidin-1-ium hydrochloride]", "values": [{"measurement": "melting point", "value": "188 to 190", "unit": "°C"}]}, {"smiles": "COc1cc(/C=C/C(=O)CC(=O)/C=C/c2ccc(O)c(OC)c2)ccc1O", "note": "[curcumin]", "values": [{"measurement": "osmotic water permeability, percent of k relative", "setting": "HeLa cells; [11]", "value": "not able to protect the AQPs’ permeability properties"}, {"measurement": "osmotic water permeability, percent of k relative", "setting": "HeLa cells; [12]", "value": "75 % of k relative"}]}, {"smiles": "O=C(CN1CCC(Cc2ccccc2)CC1)c1ccc2ccccc2c1", "note": "[Compound 1]", "values": [{"measurement": "ln(Ki)", "setting": "S1R [2]", "value": 3.296}]}, {"smiles": "O=C(CCN1CCOCC1)c1ccc(-c2ccccc2)cc1", "note": "[Compound 4]", "values": [{"measurement": "ln(Ki)", "setting": "S1R [2]", "value": 1.065}]}, {"smiles": "O=C(CCN1CCCCC1)c1ccc2ccccc2c1", "note": "[Compound 3]", "values": [{"measurement": "ln(Ki)", "setting": "S1R [2]", "value": 0.788}]}, {"smiles": "O=C(CN1CCC(Cc2ccccc2)CC1)c1ccc(-c2ccccc2)cc1", "note": "[Compound 6]", "values": [{"measurement": "ln(Ki)", "setting": "S1R [2]", "value": 5.829}]}, {"smiles": "O=C(CCCN1CCCCC1)c1ccc(-c2ccccc2)cc1", "note": "[Compound 12, 1-(4-([1,1’-biphenyl]-4-yl)-4-oxobutyl)piperidin-1-ium hydrochloride]", "values": [{"measurement": "osmotic water permeability, percent of k relative", "setting": "HeLa cells; [11]", "value": "able to prevent the water permeability reduction"}, {"measurement": "osmotic water permeability, percent of k relative", "setting": "HeLa cells; [12]", "value": "did not affect the water permeability"}, {"measurement": "Ki", "setting": "[5]", "value": 0.2, "unit": "µM"}, {"measurement": "Ki", "setting": "S1R [1]; [9]", "value": "33 ± 14", "unit": "nM"}, {"measurement": "Ki", "setting": "S1R [1]; [10]", "value": 33, "unit": "nM"}, {"measurement": "inhibition at 50 µM", "setting": "AChE; 50 μM", "value": 72, "unit": "%"}, {"measurement": "IC50", "setting": "AChE; Ellman's method", "value": "0.68 ± 0.09", "unit": "µM"}]}, {"smiles": "O=C(CCCN1CCCCC1)c1ccc2ccccc2c1", "note": "[Compound 11, 1-(4-(naphthalen-2-yl)-4-oxobutyl)piperidin-1-ium hydrochloride]", "values": [{"measurement": "Ki", "setting": "S1R [1]; [7]", "value": "4.4 ± 2.4", "unit": "nM"}, {"measurement": "Ki", "setting": "S1R [1]; [8]", "value": 4.4, "unit": "nM"}, {"measurement": "Ki", "setting": "S2R [6]", "value": 0.05, "unit": "µM"}]}, {"smiles": "O=C(CCN1CCCCC1)c1ccc(OCc2ccccc2)cc1", "note": "[Compound 10, 1-(3-(4-(benzyloxy)phenyl)-3-oxopropyl)piperidin-1-ium hydrochloride]", "values": [{"measurement": "Ki", "setting": "S1R [1]; [7]", "value": "25 ± 7", "unit": "nM"}, {"measurement": "Ki", "setting": "S1R [1]; [8]", "value": 25, "unit": "nM"}]}, {"smiles": "O=C(CCCN1CCCCC1)c1ccc(OCc2ccccc2)cc1", "note": "[Compound 13, 1-(4-(4-(benzyloxy)phenyl)-4-oxobutyl)piperidin-1-ium hydrochloride]", "values": [{"measurement": "Ki", "setting": "S1R [1]; [7]", "value": "87 ± 28", "unit": "nM"}, {"measurement": "Ki", "setting": "S1R [1]; [8]", "value": 87, "unit": "nM"}]}]}
